Results: the CheMixHub ionic liquid set

Assay: xn = mol fraction of the nth substance listed
Conditions: 318.15 K, 101 kPa

Cc1ncc(C[n+]2csc(CCO)c2C)c(N)n1.Cl.[Cl-] + CCCCCCCCCCCCOS(=O)(=O)[O-].[Na+] + O
Conditions	electrical conductivity [S/m]
x2 = 0, x1 = 1.8e-07	0.00286
x2 = 0, x1 = 9e-07	0.00608
x2 = 0, x1 = 1.8e-06	0.00964
x2 = 7.35e-06, x1 = 1.8e-07	0.00698
x2 = 7.35e-06, x1 = 9e-07	0.0104
x2 = 7.35e-06, x1 = 1.8e-06	0.0147
x2 = 1.463e-05, x1 = 1.8e-07	0.0112
x2 = 1.463e-05, x1 = 9e-07	0.0145
x2 = 1.463e-05, x1 = 1.8e-06	0.0195
x2 = 2.18e-05, x1 = 1.8e-07	0.0153
x2 = 2.18e-05, x1 = 9e-07	0.0186
x2 = 2.18e-05, x1 = 1.8e-06	0.0241
x2 = 2.901e-05, x1 = 1.8e-07	0.0195
x2 = 2.901e-05, x1 = 9e-07	0.0226
x2 = 2.901e-05, x1 = 1.8e-06	0.0286
x2 = 3.604e-05, x1 = 1.8e-07	0.0235
x2 = 3.604e-05, x1 = 9e-07	0.0266
x2 = 3.604e-05, x1 = 1.8e-06	0.033
x2 = 4.307e-05, x1 = 1.8e-07	0.0276
x2 = 4.307e-05, x1 = 9e-07	0.0306
x2 = 4.307e-05, x1 = 1.8e-06	0.0375
x2 = 4.991e-05, x1 = 1.8e-07	0.0315
x2 = 4.991e-05, x1 = 9e-07	0.0346
x2 = 4.991e-05, x1 = 1.8e-06	0.0417
x2 = 5.676e-05, x1 = 1.8e-07	0.0355
x2 = 5.676e-05, x1 = 9e-07	0.0386
x2 = 5.676e-05, x1 = 1.8e-06	0.0458
x2 = 6.361e-05, x1 = 1.8e-07	0.0393
x2 = 6.361e-05, x1 = 9e-07	0.0425
x2 = 6.361e-05, x1 = 1.8e-06	0.0498
x2 = 7.027e-05, x1 = 1.8e-07	0.043
x2 = 7.027e-05, x1 = 9e-07	0.0464
x2 = 7.028e-05, x1 = 1.8e-06	0.0537
x2 = 7.694e-05, x1 = 1.8e-07	0.0467
x2 = 7.694e-05, x1 = 9e-07	0.0503
x2 = 7.694e-05, x1 = 1.8e-06	0.0576
x2 = 8.361e-05, x1 = 1.8e-07	0.0503
x2 = 8.361e-05, x1 = 9e-07	0.0542
x2 = 8.361e-05, x1 = 1.8e-06	0.0614
x2 = 9.009e-05, x1 = 1.8e-07	0.0539
x2 = 9.009e-05, x1 = 9e-07	0.058
x2 = 9.009e-05, x1 = 1.8e-06	0.0651
x2 = 9.658e-05, x1 = 1.8e-07	0.0576
x2 = 9.658e-05, x1 = 9e-07	0.0618
x2 = 9.658e-05, x1 = 1.8e-06	0.0686
x2 = 0.0001031, x1 = 1.8e-07	0.0611
x2 = 0.0001031, x1 = 9e-07	0.0653
x2 = 0.0001031, x1 = 1.8e-06	0.0721
x2 = 0.0001094, x1 = 1.8e-07	0.0643
x2 = 0.0001094, x1 = 9e-07	0.0687
x2 = 0.0001094, x1 = 1.8e-06	0.0754
x2 = 0.0001157, x1 = 1.8e-07	0.0676
x2 = 0.0001157, x1 = 9e-07	0.0719
x2 = 0.0001157, x1 = 1.8e-06	0.0784
x2 = 0.000122, x1 = 1.8e-07	0.0707
x2 = 0.000122, x1 = 9e-07	0.075
x2 = 0.000122, x1 = 1.8e-06	0.0813
x2 = 0.0001281, x1 = 1.8e-07	0.0736
x2 = 0.0001281, x1 = 9e-07	0.0777
x2 = 0.0001281, x1 = 1.8e-06	0.0841
x2 = 0.0001342, x1 = 1.8e-07	0.0764
x2 = 0.0001342, x1 = 9e-07	0.0802
x2 = 0.0001342, x1 = 1.8e-06	0.0868
x2 = 0.0001404, x1 = 1.8e-07	0.079
x2 = 0.0001404, x1 = 9e-07	0.0822
x2 = 0.0001404, x1 = 1.8e-06	0.0894
x2 = 0.0001465, x1 = 1.8e-07	0.0816
x2 = 0.0001465, x1 = 9e-07	0.0841
x2 = 0.0001465, x1 = 1.8e-06	0.0919
x2 = 0.0001524, x1 = 1.8e-07	0.0838
x2 = 0.0001524, x1 = 9e-07	0.086
x2 = 0.0001524, x1 = 1.8e-06	0.0943
x2 = 0.0001584, x1 = 1.8e-07	0.0858
x2 = 0.0001584, x1 = 9e-07	0.0878
x2 = 0.0001584, x1 = 1.8e-06	0.0962
x2 = 0.0001641, x1 = 1.8e-07	0.0876
x2 = 0.0001641, x1 = 9e-07	0.0895
x2 = 0.0001641, x1 = 1.8e-06	0.0981
x2 = 0.0001699, x1 = 1.8e-07	0.0893
x2 = 0.0001699, x1 = 9e-07	0.0911
x2 = 0.0001699, x1 = 1.8e-06	0.1
x2 = 0.0001757, x1 = 1.8e-07	0.0909
x2 = 0.0001757, x1 = 9e-07	0.0927
x2 = 0.0001757, x1 = 1.8e-06	0.102
x2 = 0.0001814, x1 = 1.8e-07	0.0924
x2 = 0.0001814, x1 = 9e-07	0.0943
x2 = 0.0001814, x1 = 1.8e-06	0.104
x2 = 0.000187, x1 = 1.8e-07	0.0939
x2 = 0.000187, x1 = 9e-07	0.0957
x2 = 0.000187, x1 = 1.8e-06	0.106
x2 = 0.0001928, x1 = 1.8e-07	0.0952
x2 = 0.0001928, x1 = 9e-07	0.0974
x2 = 0.0001928, x1 = 1.8e-06	0.107
x2 = 0.0001982, x1 = 1.8e-07	0.0966
x2 = 0.0001982, x1 = 9e-07	0.0991
x2 = 0.0001982, x1 = 1.8e-06	0.109
x2 = 0.0002038, x1 = 1.8e-07	0.0979
x2 = 0.0002038, x1 = 9e-07	0.101
x2 = 0.0002038, x1 = 1.8e-06	0.111
x2 = 0.0002092, x1 = 1.8e-07	0.0992
x2 = 0.0002092, x1 = 9e-07	0.102
x2 = 0.0002092, x1 = 1.8e-06	0.112
x2 = 0.0002147, x1 = 1.8e-07	0.1
x2 = 0.0002148, x1 = 9e-07	0.104
x2 = 0.0002148, x1 = 1.8e-06	0.114
x2 = 0.00022, x1 = 1.8e-07	0.102
x2 = 0.00022, x1 = 9e-07	0.105
x2 = 0.00022, x1 = 1.8e-06	0.115
x2 = 0.0002254, x1 = 1.8e-07	0.103
x2 = 0.0002254, x1 = 9e-07	0.107
x2 = 0.0002254, x1 = 1.8e-06	0.116
x2 = 0.0002306, x1 = 1.8e-07	0.104
x2 = 0.0002306, x1 = 9e-07	0.108
x2 = 0.0002306, x1 = 1.8e-06	0.117
x2 = 0.0002358, x1 = 1.8e-07	0.105
x2 = 0.0002358, x1 = 9e-07	0.109
x2 = 0.0002358, x1 = 1.8e-06	0.119
x2 = 0.0002411, x1 = 1.8e-07	0.106
x2 = 0.0002411, x1 = 9e-07	0.111
x2 = 0.0002411, x1 = 1.8e-06	0.12
